Measured values: a melting point compilation (Tetko et al.; mined from patent text by program, amines drawn as free bases though some values may be those of a salt)

Row | melting point [°C] | SMILES
1 | 174 to 175 | O=Cc1c[nH]c2ccc(Nc3ncnc4cc(-c5ccccc5)sc34)cc12
2 | 201 to 202 | O=c1cc(-c2ccccc2)sn1-c1nc2ccccc2s1
3 | 270 to 271 | O=C(NC(Cc1ccc(OCc2ccccc2)cc1)C(=O)O)c1cn2cc(-c3ccc(Cl)cc3)ccc2n1 (centres undefined)
4 | 256 | N#CSc1cc2sc(NC(=O)C3CC3)nc2cc1F
5 | 239 to 240 | CCOCc1nc2cnc3cc(O)ccc3c2n1CC1COC(C)(C)O1 (centres undefined)
6 | 117 to 119 | COc1ccc2c(c1)CCC1=C2CCC2(CC(C)C)C(=O)CCC12 (centres undefined)
7 | 78.7 to 79.4 | Brc1ccc2c(c1)cc1n2CCC1
8 | 252 to 254 | NC(=O)c1c(N2CCN(Cc3ccccc3)CC2)nn2c(-c3cccc(C(F)(F)F)c3)ccnc12
9 | 159 to 161 | Cc1ccc(CNC(=O)c2ccc3n2Cc2ccccc2N(C(=O)c2ccc(-c4ccccc4C)c(C)c2)C3)c(C)c1
10 | 106 | COC(=O)c1cc(N(C)C(C)=O)cc(N(C)C(C)=O)c1
11 | 175 to 177 | N#CCc1ccc(-c2cn3ccccc3n2)cc1
12 | 190 to 191 | CCCc1nc2c(N)nc3cc(Oc4ccc(N)cc4)ccc3c2n1CC(C)C
13 | 47.5 to 48 | CCCCCCCCCCCCCCCCNC(=O)OCC(CO)OC (centres undefined)
14 | 107 to 108 | O=C1CCCCC1C(C[N+](=O)[O-])c1ccc(C(F)(F)F)cc1 (racemic)
15 | 82 to 84 | CCOC(=O)C1C(=O)N(CC)c2cc3c(cc21)OCC3 (centres undefined)
16 | 93 to 95 | CCCOc1ccc2c(c1)C(N(C)S(C)(=O)=O)=CC(C)(C)O2
17 | 63 to 64.5 | CC(C(=O)CO)c1ccc(-c2ccccc2)c(F)c1 (centres undefined)
18 | 149 to 150 | CCOC(=O)C(C(=O)OCC)N1CC(N2C(=O)c3ccccc3C2=O)C1=O (centres undefined)
19 | 228 to 230 | CN1CCN(C2=Nc3cc(Cl)ccc3Cn3nnnc32)CC1
20 | 70 | Nc1ncc(F)cc1I

Row | melting point [°C] | SMILES
21 | 215 to 216 | O=C(O)c1cc(F)c(F)cc1Nc1ccc(F)cc1F
22 | 94 to 95 | CC(=O)NCc1ccc(CN2CCN(c3ccc(F)cc3F)CC2)cc1
23 | 82 to 84 | CC(C)S(=O)(=O)C1=CC=CN(Cl)C1
24 | 198 to 200 | N#Cc1cnc2ccsc2c1Nc1ccc(Cl)cc1Cl
25 | 209 to 210 | COc1ccc(Oc2cccc3ncnc(NC(=O)Nc4cccc(OC)c4)c23)cc1
26 | 158 to 160 | COc1cc(N)ccc1S(=O)(=O)Nc1ccc(C)cc1
27 | 175 to 176 | CCCCc1nc2c(N)nc3cccnc3c2n1CCN
28 | 109 | CC(=Cc1ccc2ccccc2c1)c1ccc(C)cc1
29 | 121 | CS(=O)(=O)Nc1cc(F)cc(F)c1
30 | 85 to 90 | COc1ccc2nc(-c3ccc4c(c3)NC(=O)C4(C)C)[nH]c2c1
31 | 61 to 62.5 | CS(=O)(=S)OCCCCC(=O)O (centres undefined)
32 | 227 to 228 | Nc1ccc2c(ccn2O)n1
33 | 107 to 109 | COC(=O)C1=C(C)NC(C)=C(C(=O)OCCc2ccc(O)cc2)C1c1cccc([N+](=O)[O-])c1 (centres undefined)
34 | 231 to 234 | COc1ncccc1-c1[nH]c2ccccc2c1C1CCN(S(=O)(=O)c2ccccc2)CC1
35 | 29 to 31 | CCOC(=O)c1c(C(F)(F)F)nc(C(F)F)c(C(=O)OC)c1OC(C)C
36 | 126 to 127 | CCCCCN1C(=O)C2(COc3cc4c(cc32)OCO4)c2cccnc21 (centres undefined)
37 | 111 to 114 | CONC(=O)CC(C#Cc1ccccc1)c1ccc(OC)c(OC2CCCC2)c1 (racemic)
38 | 122 to 124 | CSc1ccc(C(=O)C(=C(N)C(F)(F)F)c2ccc(F)cc2)cc1
39 | 201 to 205 | C1=Cc2c3c(ccc2=N1)=CC=N3
40 | 112 to 114 | CCOC(=O)C1=C(COCc2nnn[nH]2)NC(C)=C(C(=O)OC)C1c1cccc(Cl)c1Cl (centres undefined)

Row | melting point [°C] | SMILES
41 | 182 | NC(=O)C(Nc1ccccc1[N+](=O)[O-])c1c(Cl)cccc1Cl (centres undefined)
42 | 201 to 203 | CC(C)(C)[C@@H](CO)NC(=O)[C@@H](CC(=O)OCc1ccccc1)n1ccc(-c2ccc(-c3ccc(C(N)=O)cc3)cc2)c1
43 | 117 to 119 | CCC(O)(CC)[C@H](Nc1nnc(-c2c(OS(=O)(=O)C(F)(F)F)ccc3ccccc23)c2ccccc12)c1ccccc1
44 | 120 to 123 | CC1(C)C2CCC3(C)C(C2)C(=O)CCC13O (centres undefined)
45 | 198 to 199 | O=C(O)C(=O)c1ccc(OCCCCc2ccncc2)cc1
46 | 178 | O=c1nc(-c2ccnc(Cl)c2)sc2ccccc12
47 | 127 to 128 | CC1=NC(C)(C)N(O)C1(C)C
48 | 178 to 183 | O=C(Nc1ccc(OC(F)(F)F)cc1)NC1CCN(C(=O)CN2CCN(Cc3ccccc3)CC2)CC1
49 | 58 to 61 | CCOC(=O)C1C(=O)Cc2ccccc21 (centres undefined)
50 | 190 to 192 | CCCCCCCNC(=O)Nc1ccc(N)cc1C(=O)NC1CCN(C(c2ccccc2)c2ccccc2)CC1
51 | 97 to 99 | CN(C)CCc1[nH]c2ccccc2c1CSc1ccccc1
52 | 111 to 113 | Cn1nc(-c2c(F)cccc2Cl)nc1-c1ccc(CO)c(Cl)c1
53 | 169 to 171 | Cc1cc(OCC(O)CNC(C)C)c2cc(C(=O)N(C)C)[nH]c2c1 (centres undefined)
54 | 47 to 49 | c1ccc(COc2cccc3sncc23)cc1
55 | 80.5 to 81.5 | CCN(Cc1ccc(Cl)cc1Cl)C(=O)n1oc(C)c(Cl)c1=O
56 | 255 to 258 | COc1ncc(Nc2nc(N3CCOCC3)nc(-n3c(C(F)F)nc4c(OC)cccc43)n2)cn1
57 | 172 to 174 | O=C(CCCN1CCC(C(O)c2cccc3ccccc23)CC1)c1ccc(F)cc1 (centres undefined)
58 | 91.5 to 94 | OC(CCCn1ccnc1)c1ccc(Cl)cc1Cl (centres undefined)
59 | 175 to 178 | Cc1cc(=S)cc(C)n1CCNC(=O)OC(C)(C)C

The next lines start with the compound.

Row | SMILES | melting point [°C]
60 | CC1(C)C=C(O)C(=O)C(C)(C)C1 | 85 to 86
61 | Cc1cccc(Nc2ccc(-c3ccccc3)cc2)c1 | 95
62 | COc1cc(OC)nc(SC2CCCC2CC(=O)O)n1 (centres undefined) | 125 to 127
63 | CC(=CC=Cc1ccccc1)C(=O)C1OCC(C)(C)CO1 | 122 to 125
64 | CCc1cc(C(=O)c2ccccc2Cl)c(-n2nnnc2CNC(=O)c2cc3ccccc3[nH]2)s1 | 146 to 149
65 | CCCCCC[C@H](C)Oc1ccc(-c2ccc(OC(=O)c3ccccc3)cc2)cc1 | 84
66 | BrCc1cc(I)cc(I)c1I | 120 to 121
67 | CCC(CC)(CC(=O)Nc1cccc(OCc2ccc3ccc(F)cc3n2)c1)C(=O)OC | 92 to 93
68 | CC(=O)Nc1ccc2[nH]c(C=CC(=O)O)cc2c1 | 238 to 239
69 | CCOC(=O)/C=C(C)/C=C/C=C(\C)C1=Cc2cc(Cl)cc(C)c2OC1 | 107
70 | O=C(c1ccccc1)c1cc(Cl)ccc1C#CCN1C(=O)c2ccccc2C1=O | 130 to 133
71 | CC1(C)CC(=O)Nc2cc3nc(O)[nH]c3cc21 | > 300
72 | O=S(=O)(Nc1cccc(Cl)c1)c1cc(S(=O)(=O)Nc2cccc(Cl)c2)c2cc(O)ccc2c1 | 206 to 208
73 | O=C(C1CCCCC1CO)N1CCCC1 (centres undefined) | 115
74 | CCOC(=O)CN(SN(C)C(=O)Oc1cccc2c1OC(C)(C)C2)C(=O)CC | 108 to 109
75 | CCc1nc2c(Cl)cc(F)c([N+](=O)[O-])c2s1 | 70 to 73
76 | O=C(O)CCCNC(=O)[C@@H](Cc1ccccc1)C[C@H](Cc1ccccc1)C(=O)O (relative stereo) | 127 to 129
77 | CS(=O)(=O)c1nnc(F)s1 | 65
78 | CCCCCCOc1ccc(-c2cc(CO)ccc2CO)cc1 | 72.5 to 74
79 | CCCCCC(O)C=CC1C(O)CC(=O)C1CCCCCCC(=O)Oc1ccc(-c2cc(=S)ss2)cc1 (centres undefined) | 101 to 105
80 | C#Cc1cccc(Nc2ncnc3[nH]cc(-c4cccs4)c23)c1 | 230 to 232
81 | O=C1C(=O)c2ccccc2C2=C1SCC(CN1CCN(c3ccc(F)cc3)CC1)O2 (centres undefined) | 180 to 182
82 | CC(C)(C)C12OOC1(c1ccc(C(=O)N3CCOCC3)c(O)c1)OCC2(C)C (centres undefined) | 114 to 116

Row | SMILES | melting point [°C]
83 | CCCCOCn1c(-c2ccc(Cl)cc2)c(C#N)c(Br)c1C(F)(F)F | 52 to 53.5
84 | O=[N+]([O-])c1ccccc1N1CCc2ccccc21 | 62 to 64
85 | CC(C)(C)OC(=O)/C(C#N)=C/c1cccc2ccccc12 | 51 to 53
86 | CC(C)(C)OC(=O)NCc1cc(C(C)(C)C)cc(Cl)c1O | 161 to 163
87 | O=C(Cl)CC(c1ccccc1)(c1ccccc1)c1ccccc1 | 182
88 | Oc1ccc2c(c1)NCC2 | 115 to 120
89 | Cc1cn(C(c2ccccc2)c2ccc(Cl)c([N+](=O)[O-])c2)cn1 (centres undefined) | 105
90 | COC(=O)CCn1c(=O)n2n(c1=O)C(C(=O)O)C=CC2 (centres undefined) | 150 to 153
91 | O=C1c2ccccc2C(=O)N1Cc1cn2ccccc2n1 | 230 to 232
92 | CN(C(=O)CNc1nc(-c2ccccc2)ncc1[N+](=O)[O-])c1ccccc1 | 194 to 196
93 | CCCCOc1ccc(Oc2ccc(C#CC(C)N(O)C(N)=O)o2)cc1 (centres undefined) | 128 to 129
94 | CNc1nc(Nc2ccc(Cl)c(Cl)c2)ncc1NC(C)=O | 267
95 | CCCCOc1ccc(C(=O)N[C@@H]2CCc3cccc(C4CCN(C)CC4)c3C2)cc1 | 162 to 164
96 | O=C1c2cc3nn[nH]c(=O)c3cc2OC2CCCN12 (centres undefined) | 253
97 | CC(C)OC(=O)c1ncn2c1cnc1ccccc12 | 205 to 206
98 | COc1ccccc1C(Cc1ccccc1)(Cn1cncn1)C(=O)O (centres undefined) | 250 to 252
99 | COc1ccccc1CN1CN2CCCC1C2c1ccccc1 (centres undefined) | 105 to 107
100 | COc1ccc(C2CN(Cc3ccccc3)Cc3c2ccc(OC)c3Cl)cc1OC (centres undefined) | 88 to 91
101 | CC(C)=CCn1c(Cl)nc2c1c(=O)[nH]c(=O)n2C | 226 to 228
102 | COCC(=O)OCc1c(C)n(Cc2ccccc2)c2c(OCc3ccc(F)cc3)nncc12 | 119 to 121
103 | CN(C)c1ccc(N(C)C(=O)Cn2c(-c3ccc(Cl)cc3)nc3cccnc32)cc1 | 152 to 155
104 | Cn1nnnc1SCC(=O)NC/C=C\COc1cc(CN2CCCCC2)ccn1 | 58 to 62
